These results are taken from US20060069132A1, “Azolecarboxamide herbicides” (priority 2004, published 2006).

The test system of one assay is giant foxtail. In words: Test A pre-/postemergence herbicide test. In kind it is in vivo, Setaria faberi. The following applies: for pest or weed control at 500 g/ha / pest or weed control at 2000 g/ha: Setaria faberi, 240 h. In a few lines:
(§1)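 Visual injury scores on a 0–100 scale (100 = complete control) taken about ten days post-treatment in greenhouse against untreated controls; dash means no result. Treatments: preemergence soil spray and postemergence spray to runoff on one- to two-leaf plants 2 to 10 cm tall, surfactant-containing formulation.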

For a further assay, the system named is redroot pigweed. In words: Test A pre-/postemergence herbicide test. In kind it is in vivo, Amaranthus retroflexus. To be noted: for pest or weed control at 500 g/ha / pest or weed control at 2000 g/ha: Amaranthus retroflexus, 240 h. Summed up: as §1
For the next assay, the system named is morningglory. In words: Test A pre-/postemergence herbicide test. Type of assay: in vivo, Ipomoea spp. To be noted: for pest or weed control at 500 g/ha / pest or weed control at 2000 g/ha: Ipomoea, 240 h. Summed up: as §1
The subject of a further assay is barnyardgrass. In words: Test C flooded paddy test. Type of assay: in vivo, Echinochloa crus-galli. In a few lines:
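Greenhouse test with a 12–14 day hold after application and visual comparison with controls. Emerged plants were 1- to 4-leaf stage (2–18 cm) when sprayed postemergence, and the paddy barnyardgrass was at 2 leaves under flooded conditions. 100 = complete control.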

For the next assay, the system named is ducksalad. In words: Test C flooded paddy test. Type of assay: in vivo, Heteranthera limosa.
Where [1] appears, read: Postemergence, 500 g ai/ha, 0 to 100 scale, 0 no effect, 100 complete control.
[2] abbreviates: Postemergence, 2000 g ai/ha, 0 to 100 scale, 0 no effect, 100 complete control.
Where [3] appears, read: Preemergence, 2000 g ai/ha, visual rating, 0 to 100 scale (0 no effect, 100 complete control).
Setting [4] is: preemergence, 500 g ai/ha, visual injury, 0 to 100 scale (0 no effect, 100 complete control).
The mark [5] stands for this setting: 62 g ai/ha, scale 0 to 100 (0 no effect, 100 complete control).
The mark [6] stands for this setting: 125 g ai/ha, scale 0 to 100 (0 no effect, 100 complete control).
Where [7] appears, read: 250 g ai/ha, scale of 0 to 100, 0 is no effect, 100 is complete control.
[8] abbreviates: 500 g ai/ha, visual rating after 12 to 14 days, scale 0 to 100 (0 no effect, 100 complete control).
[9] abbreviates: Preemergence, 500 g ai/ha, visual rating, 0 to 100 scale (0 no effect, 100 complete control).
Where [10] appears, read: 125 g ai/ha, scale of 0 to 100, 0 is no effect, 100 is complete control.
Where [11] appears, read: Preemergence, 2000 g ai/ha, 0 to 100 scale, 0 no effect, 100 complete control.

Each structure is given as a SMILES string. Read-outs that look alike come from different tables or passages of the source.

As to `CCn1nc(C(C)(C)C)cc1C(=O)Nc1cccc(OC(C)C)c1` [Compound 273], the “Foxtail, Giant plant response rating” value in the assay on giant foxtail (setting [1]) came out at 50; in the assay with giant foxtail (setting [3]) it was 100; in the assay with giant foxtail (setting [4]) it was 85. The “Plant response rating, Foxtail, Giant” value in the assay on giant foxtail (setting [2]) turned out to be 70. Also, the “Pigweed plant response rating” value in the assay on redroot pigweed (setting [1]), in the assay on redroot pigweed (setting [3]) and with redroot pigweed (setting [4]) was 100 each time. The “Plant response rating, Pigweed” value in the assay with redroot pigweed (setting [2]) was 100. The “Morningglory plant response rating” value with morningglory (setting [1]) came to 70; with morningglory (setting [3]), 80; in the assay on morningglory (setting [4]), 45. For the same compound, the “Plant response rating, Morningglory” value in the assay with morningglory (setting [2]) came to 75. Besides, the “Barnyardgrass plant response rating” value was determined as 20 in the assay with barnyardgrass (setting [5]), 40 with barnyardgrass (setting [6]) and 60 with barnyardgrass (setting [7]). For the same compound, in the assay with barnyardgrass (setting [8]), the “Plant response rating, Barnyardgrass” value is listed as 70. The “Ducksalad plant response rating” value in the assay with ducksalad (62 g ai/ha, scale 0 to 100) was 20; with ducksalad (setting [6]), 50; in the assay with ducksalad (setting [7]) it was 75. In addition, in the assay with ducksalad (setting [8]), the “Plant response rating, Ducksalad” value is reported as 75.

Regarding `C=CCn1nc(C(C)(C)C)cc1C(=O)Nc1cccc(C(C)=NO)c1` [Compound 117], the “Foxtail, Giant plant response rating” value is 35 with giant foxtail (setting [1]), 25 in the assay on giant foxtail (setting [9]) and 60 in the assay on giant foxtail (setting [3]). The “Plant response rating, Foxtail, Giant” value in the assay on giant foxtail (setting [2]) turned out to be 55. In addition, the figures for the “Pigweed plant response rating” value in the assay with redroot pigweed (setting [1]), in the assay on redroot pigweed (setting [9]) and with redroot pigweed (setting [3]) were 80, 55 and 90, respectively. Further, the “Plant response rating, Pigweed” value with redroot pigweed (setting [2]) came to 95. Further, the results for the “Morningglory plant response rating” value with morningglory (setting [1]), with morningglory (setting [9]) and with morningglory (setting [3]) were 20, 45 and 75, respectively. For the same compound, the “Plant response rating, Morningglory” value in the assay with morningglory (setting [2]) is 70. Moreover, the “Barnyardgrass plant response rating” value in the assay on barnyardgrass (setting [5]) turned out to be 10; with barnyardgrass (setting [10]), 20; in the assay on barnyardgrass (setting [7]) it was 50. Besides, the “Plant response rating, Barnyardgrass” value in the assay with barnyardgrass (setting [8]) came out at 50. The “Ducksalad plant response rating” value with ducksalad (setting [5]), in the assay on ducksalad (setting [10]) and with ducksalad (setting [7]) was 0 each time. In the assay with ducksalad (setting [8]), the “Plant response rating, Ducksalad” value was 60.

As for `CCn1nc(C(C)(C)C)cc1C(=O)Nc1cccc(C(=O)NCC(F)(F)F)c1` [Compound 43, 3-(1,1-dimethylethyl)-1-ethyl-N-[3-[[(2,2,2-trifluoroethyl)amino]carbonyl]-phenyl]-1H-pyrazole-5-carboxamide], the pest or weed control at 500 g/ha with giant foxtail (post-emergence, Postemergence, 500 g ai/ha, 0 to 100 scale, 0 no effect, 100 complete control, read-out: Plant response rating, Foxtail, Giant) came out at 70%; in the assay on giant foxtail (pre-emergence, Preemergence, 500 g ai/ha, visual rating, 0 to 100 scale (0 no effect, 100 complete control), read-out: Foxtail, Giant plant response rating), 55%; with redroot pigweed (post-emergence, Postemergence, 500 g ai/ha, 0 to 100 scale, 0 no effect, 100 complete control, read-out: Plant response rating, Pigweed), 100%; in the assay with redroot pigweed (pre-emergence, Preemergence, 500 g ai/ha, visual rating, 0 to 100 scale (0 no effect, 100 complete control), read-out: Pigweed plant response rating), 100%; with morningglory (post-emergence, Postemergence, 500 g ai/ha, 0 to 100 scale, 0 no effect, 100 complete control, read-out: Plant response rating, Morningglory), 20%; with morningglory (pre-emergence, Preemergence, 500 g ai/ha, visual rating, 0 to 100 scale (0 no effect, 100 complete control), read-out: Morningglory plant response rating), 10%. Also, the pest or weed control at 500 g/ha with barnyardgrass (Echinochloa crus-galli, 500 g ai/ha, visual rating after 12 to 14 days, scale 0 to 100 (0 no effect, 100 complete control), read-out: Plant response rating, Barnyardgrass) is 50%; with ducksalad (Heteranthera limosa, 500 g ai/ha, visual rating after 12 to 14 days, scale 0 to 100 (0 no effect, 100 complete control), read-out: Plant response rating, Ducksalad), 70%. Besides, the pest or weed control at 2000 g/ha with giant foxtail (post-emergence, Postemergence, 2000 g ai/ha, 0 to 100 scale, 0 no effect, 100 complete control, read-out: Plant response rating, Foxtail, Giant) turned out to be 70%; with giant foxtail (pre-emergence, Preemergence, 2000 g ai/ha, 0 to 100 scale, 0 no effect, 100 complete control, read-out: Foxtail, Giant plant response rating), 100%; with redroot pigweed (post-emergence, Postemergence, 2000 g ai/ha, 0 to 100 scale, 0 no effect, 100 complete control, read-out: Plant response rating, Pigweed), 100%; with redroot pigweed (pre-emergence, Preemergence, 2000 g ai/ha, 0 to 100 scale, 0 no effect, 100 complete control, read-out: Pigweed plant response rating) it was 100%; in the assay with morningglory (post-emergence, Postemergence, 2000 g ai/ha, 0 to 100 scale, 0 no effect, 100 complete control, read-out: Plant response rating, Morningglory) it was 30%; in the assay with morningglory (pre-emergence, Preemergence, 2000 g ai/ha, 0 to 100 scale, 0 no effect, 100 complete control, read-out: Morningglory plant response rating), 40%. The pest or weed control at 62 g/ha in the assay on barnyardgrass (Echinochloa crus-galli, 62 g ai/ha, scale 0 to 100 (0 no effect, 100 complete control), read-out: Barnyardgrass plant response rating) worked out at 0%; with ducksalad (Heteranthera limosa, 62 g ai/ha, scale 0 to 100 (0 no effect, 100 complete control), read-out: Ducksalad plant response rating) it was 0%. The pest or weed control at 125 g/ha in the assay on barnyardgrass (Echinochloa crus-galli, 125 g ai/ha, scale of 0 to 100, 0 is no effect, 100 is complete control, read-out: Barnyardgrass plant response rating) is 0%; with ducksalad (Heteranthera limosa, 125 g ai/ha, scale of 0 to 100, 0 is no effect, 100 is complete control, read-out: Ducksalad plant response rating), 0%. The pest or weed control at 250 g/ha is 40% in the assay with barnyardgrass (Echinochloa crus-galli, 250 g ai/ha, visual rating after 12 to 14 days, scale 0 to 100 (0 no effect, 100 complete control), read-out: Plant response rating, Barnyardgrass) and 60% in the assay on ducksalad (Heteranthera limosa, 250 g ai/ha, visual rating after 12 to 14 days, scale 0 to 100 (0 no effect, 100 complete control), read-out: Plant response rating, Ducksalad).

For `CCn1nc(C(C)(C)C)cc1C(=O)Nc1cccc(C(=O)N2CC=CC2)c1` [Compound 286], the “Foxtail, Giant plant response rating” value in the assay on giant foxtail (setting [1]) turned out to be 35; in the assay with giant foxtail (setting [3]), 100; in the assay with giant foxtail (setting [4]), 60. Also, the “Plant response rating, Foxtail, Giant” value in the assay on giant foxtail (setting [2]) worked out at 75. In addition, the entries for the “Pigweed plant response rating” value with redroot pigweed (setting [1]), with redroot pigweed (setting [3]) and in the assay on redroot pigweed (setting [4]) were 55, 95 and 85, respectively. The “Plant response rating, Pigweed” value in the assay with redroot pigweed (setting [2]) was 85. In addition, the “Morningglory plant response rating” value in the assay on morningglory (setting [1]) stood at 20; in the assay on morningglory (setting [3]) it was 40; with morningglory (setting [4]), 30. The “Plant response rating, Morningglory” value with morningglory (setting [2]) is 35. In addition, the “Barnyardgrass plant response rating” value in the assay on barnyardgrass (setting [5]) was 40; in the assay with barnyardgrass (setting [6]) it was 55; with barnyardgrass (setting [7]) it was 70. The “Plant response rating, Barnyardgrass” value in the assay on barnyardgrass (setting [8]) amounted to 80. For the same compound, the “Ducksalad plant response rating” value is 50 in the assay on ducksalad (62 g ai/ha, scale 0 to 100); 75 in the assay on ducksalad (setting [6]); 90 with ducksalad (setting [7]). Besides, in the assay with ducksalad (setting [8]), the “Plant response rating, Ducksalad” value stood at 90.

Take `CCOC(=O)c1cccc(NC(=O)c2cc(C(C)(C)C)nn2CCF)c1` [Compound 79]: the “Plant response rating, Foxtail, Giant” value in the assay on giant foxtail (setting [1]) is 30; in the assay with giant foxtail (setting [2]), 40. Further, the “Foxtail, Giant plant response rating” value in the assay with giant foxtail (setting [9]) was found to be 10; in the assay with giant foxtail (setting [11]), 40. In addition, the “Plant response rating, Pigweed” value was determined as 95 in the assay with redroot pigweed (setting [1]) and 85 in the assay on redroot pigweed (setting [2]). Moreover, the “Pigweed plant response rating” value is recorded as 45 with redroot pigweed (setting [9]) and 90 in the assay with redroot pigweed (setting [11]). The “Plant response rating, Morningglory” value was 15 with morningglory (setting [1]) and 25 in the assay with morningglory (setting [2]). Moreover, the “Morningglory plant response rating” value with morningglory (setting [9]) is given as 20; with morningglory (setting [11]), 60. Further, the “Barnyardgrass plant response rating” value was found to be 10 in the assay on barnyardgrass (setting [5]), 25 in the assay with barnyardgrass (setting [10]) and 25 with barnyardgrass (setting [7]). Further, the “Plant response rating, Barnyardgrass” value with barnyardgrass (setting [8]) was determined as 80. For the same compound, the “Ducksalad plant response rating” value is on record as 0 in the assay with ducksalad (setting [5]), 0 with ducksalad (setting [10]) and 15 in the assay on ducksalad (setting [7]). Further, the “Plant response rating, Ducksalad” value in the assay on ducksalad (setting [8]) came to 55.
